Results from patent US11149016B2, “S-substituted-2-amino-3-mercaptopropionate derivative, preparation method and application thereof” (JIANGSU TASLY DIYI PHARMACEUTICAL CO., LTD., priority 2016, dated 2021).

Tested on: mice with memory disorders caused by scopolamine
Test: Passive avoidance (darkroom) test in mice with scopolamine-injured memory
Format: in vivo, ICR mice
Conditions: for Latency (s) of entering the darkroom / Error times (number of times entering the darkroom within 3 minutes): intragastric, 7 days, scopolamine 3 mg/kg 20 minutes before testing, x ± s, n = 10; for Activity compared with SPRC (in words) / Effect on error times of mice with memory impairment entering the darkroom (in words) / Effect on latency of mice with memory impairment entering the darkroom (in words): passive avoidance test, scopolamine model
Excerpt: Memory functions of mice are injured by scopolamine, and effects of improvement of tested materials on the memory functions of the mice are observed.
Animals: ICR mice, male, 20-22 g, purchased from Institute for Experimental Animals in Chinese Academy of Medical Sciences, certification number: SCXK (JING) 2014-0004.
Agent: scopolamine (J&K Company), donepezil reagent (TCI Company).
Tested materials: 4 tested materials and a positive-drug donepezil are provided by Tasly Group. Dosage of administration: administered by tested materials according to 80 mg/kg weight, administered by donepezil according to 5 mg/kg weight, an administration volume of 2 ml.
purchasing 60 mice, and enabling the mice to adapt to an environment for three days; dividing the mice into 6 groups randomly, wherein a blank control group includes 10 mice, the rest mice are contained in administration groups, and each administration group includes 10 mice; respectively administering the tested materials and positive drug, performing intragastric administration for 7 days, putting the mice into a darkroom to adapt to the environment on the fifth day during administration, electrifying the darkroom on the sixth day during administration, training the mice to elude the darkroom, and training each mouse once; testing on the seventh day, administering with scopolamine by 3 mg/kg within 20 minutes before testing, and recording time of the mice entering the darkroom for the first time and a number of times of the mice entering the darkroom within 3 minutes during testing.
Passive avoidance response is a common method used commonly to detect learning and memory functions of small animals. With respect to a passive avoidance test, by means of a feature that rodents like darkness and keep in a dark place, the rodents are stimulated in the dark to escape to a bright place to acquire memory, and the passive avoidance test is a type of passive avoidance response experiments. The passive avoidance test has a short experimental period and is applicable to rapid drug screening. The scopolamine may inhibit release of acetyl choline, so as to form learning and memory disorders. The passive avoidance test is a stable learning and memory disorder modeling method and has excellent model reproducibility.

[1] = tested materials 80 mg/kg, time of first entry into darkroom
[2] = positive drug donepezil 5 mg/kg

Row | SMILES | Latency (s) of entering the darkroom [1] [s] | Error times (number of times entering the darkroom within 3 minutes) (tested materials 80 mg/kg) | Activity compared with SPRC (in words) | Effect on error times of mice with memory impairment entering the darkroom (in words) | Effect on latency of mice with memory impairment entering the darkroom (in words) | Error times (number of times entering the darkroom within 3 minutes) [2] | Latency (s) of entering the darkroom [2] [s]
1 | C#CCSCC(N)C(=O)Oc1ccc(C=O)cc1 (centres unmarked) [Vb, 2-amino-3-propinylmercaptopropionic acid-4-formyl phenol ester] | 53.2 ± 59.4 | 4.1 ± 3.7 | – | – | – | – | –
2 | C#CCSC[C@H](N)C(=O)O [SPRC, S-propargyl-cysteine, reference compound] | 50.5 ± 69.7 | 3.8 ± 4.0 | – | – | – | – | –
3 | C#CCSCC(N)C(=O)OCCCC[N+](=O)[O-] (centres unmarked) [Vf, 2-amino-3-propinylmercaptopropionic acid-4-nitro-1-butanol ester] | 60.2 ± 61.3 | 2.4 ± 2.3 | obviously better than the activity of the SPRC | trend of decreasing the error times | trend of increasing the latency | – | –
4 | C#CCSCC(N)C(=O)OCc1ccc(OC(=O)C(N)CSCC#C)cc1 (centres unmarked) [Vd, bis(2-amino-3-propinylmercaptopropionic acid)-4-benzyl alcohol-1-phenol diester] | 63.6 ± 69.5 | 2.6 ± 3.3 | obviously better than the activity of the SPRC | trend of decreasing the error times | trend of increasing the latency | – | –
5 | COc1cc2c(cc1OC)C(=O)C(CC1CCN(Cc3ccccc3)CC1)C2 (centres unmarked) [Donepezil, donepezil, reference compound] | – | – | – | – | – | 6.8 ± 5.4 | 49.5 ± 71.6
6 | C#CCSCC(N)C(=O)Oc1ccc(-c2cc(=S)ss2)cc1 (centres unmarked) [Va, 2-amino-3-propinylmercaptopropionic acid-4-(3-thio-3H-1,2-dithio-5-alkenyl) phenol ester] | 55.8 ± 61.3 | 4.7 ± 4.6 | – | – | – | – | –
7 | C#CCSCC(N)C(=O)Oc1ccc(CO)cc1 (centres unmarked) [Vc, 2-amino-3-propinylmercaptopropionic acid-4-benzyl alcohol phenol ester] | 66.8 ± 57.1 | 2.4 ± 1.3 | obviously better than the activity of the SPRC | trend of decreasing the error times | trend of increasing the latency | – | –
